For orientation: melting point means the temperature of the solid-liquid transition.

As to `CC(=O)N1C(=O)N(N=Cc2cccnc2)Cc2cc(C(F)(C(F)(F)F)C(F)(F)F)ccc21`, the melting point was in the range of 160 to 162 °C.
In the case of `CCCS(=O)(=O)Nc1c(C)c(C)c2c(c1C)C(c1ccc(C(C)C)cc1)CO2` (stereo not given), the melting point was 133 to 134 °C.
`COc1ccc(CCNC(=O)C(F)(F)F)cc1C=O`: the melting point was in the range of 105 to 106 °C.
Under `CC1CN=C(c2cccs2)NO1` (stereo not given) stands 70 to 72 °C; under `CSc1ccc(C2=C(c3ccc(C)cc3)CCC2)cc1`, 64.5 to 66.5 °C.
The compound `O=C(/C=C/c1ccc([N+](=O)[O-])cc1)c1cc2ccccc2oc1=O` showed a melting point of 272 to 274 °C.
Turning to `CC(C)(C)OC(=O)NC1C=C(C(=O)O)OC1` (stereo not given), the melting point was 117 to 120 °C.
On to `Nc1c(C(F)(F)F)cc(OCc2ccccc2)cc1C(F)(F)F`, for which the melting point was in the range of 58 to 59 °C.
`COc1ccc(-c2csc(C(=O)Nc3cc4ccccc4cn3)n2)cc1OC` had a melting point of 196 to 202 °C.
`CS(=O)(=O)N1CCC(NC(=O)OCc2ccccc2)CC1` had a melting point of 149 to 153 °C.
Compound `O=C(O)CCNC(=O)c1ccc(N(Cc2ccc(C3=CCCCC3)cc2)C(=O)C=Cc2cccc(OC(F)(F)F)c2)cc1` yielded a melting point of 178 to 180 °C.
`COc1ccc(N2CCOCC2)c2sc(NC(=O)c3ccnc(CN(C)C(C)=O)c3)nc12` had a melting point of 228 to 230 °C.
On to `NS(=O)(=O)OCCOc1cccc(O)c1`, for which the melting point lay within 56 to 60 °C.
The result for `O=C(NC1CCc2ccccc2CC1=O)OCc1ccccc1` (stereo not given) reads 119 to 121 °C; that for `CC(C)OC(=O)COc1ccc(NC(=O)NC(=O)c2ccc(C(N)=S)cc2)cc1`, 224 to 227 °C; that for `O=C(NCc1cccc(Cl)c1)c1sc2ccc(Cl)cc2c1O`, 184 to 186 °C.
Under `CC1(C)Oc2ccc(-n3c(=O)[nH]c4cccnc43)cc2O1` stands 223 to 224 °C; under `COc1c(Cl)c(-c2nnc(C)s2)cc2oc(=O)c(C)c(C)c12`, 209 to 210 °C.
`CCCCc1cc(=O)c2ccccc2n1Cc1ccc(-c2ccccc2C(=O)O)cc1`: the melting point is > 260 °C.
`CCOC(=O)c1ccc(NCCOc2ccc3ccccc3c2)cc1`: the melting point lay in the range of 158 to 162 °C.
In turn, `CN(Cc1ccc(=O)n(Cc2ccc(Cl)cc2)c1)c1ccccc1` gave a melting point of 106 °C.
`COc1cc(C=O)cc(OC)c1F` came in with a melting point of 97 to 98 °C.
The result for `O=c1[nH]c2ccc(S(=O)CCN3CCC(Cc4ccc(Cl)cc4)CC3)cc2o1` (stereo not given) reads 213 to 214 °C.
Under `O=S(=O)(On1nnc2ccccc21)c1ccccc1` stands 83 to 84 °C; under `CCCCCCCCCCOc1ccc2c(=O)c3cc(C(=O)O)ccc3oc2c1CCC(=O)O`, > 210 °C.
`CC(=O)Nc1ccc2c(c1)S(=O)(=O)NCN2C1CC1` showed a melting point of 230 to 232 °C.
`C=CCOc1nc2cccc(C(=O)OC)c2n1Cc1ccc(-c2ccccc2C#N)cc1` returned a melting point of 118 to 119 °C.
In the case of `CCOC(=O)C(C#N)=C1CC(C)(C)c2cc(OC)c(OC)cc21`, the melting point was 148 to 149 °C.
`O=C(c1ccncc1)[N+]1([O-])CCC(C(O)(c2ccc(Cl)cc2)c2nccs2)CC1` (stereo not given) came in with a melting point of 215 to 217 °C.
Turning to `CCOC(=O)c1nn(CC)c2nccc(O)c12`, the melting point lay in the range of 85 to 87 °C.
Under `O=CNc1nc(S(=O)(=O)Nc2c(F)cccc2F)n[nH]1` stands 258 to 260 °C; under `CCOC(=O)c1c[nH]c2c(C)csc2c1=O`, 238 to 242 °C.
The result for `Cc1c2n(c3ccccc13)C(=O)N(Cc1ncn(C(c3ccccc3)(c3ccccc3)c3ccccc3)c1C)CC2` reads 210 to 220 °C; that for `Clc1nc(Cl)nc(N2CC3CCC(CC3)C2)n1`, 153 to 154 °C.
The compound `NC(=O)NC1CCC(O)c2ccccc21` (stereo not given) registered a melting point of 170 to 176 °C.
The compound `COc1cccc(OC)c1C(=O)P1(=O)Oc2ccccc2-c2ccccc21` (stereo not given) gave a melting point of 96 to 98 °C.
The compound `CCCC1=C(C(=O)OCC)C(c2ccccc2Cl)c2cn(C(=O)OC(C)(C)C)nc2N1` (stereo not given) came in with a melting point of 144 to 147 °C.
Turning to `COC(=O)C1=C(C)NC(C)=C(C(=O)OCCN)C1c1cccc(Cl)c1Cl` (stereo not given), the melting point was 166 to 167 °C.
On to `O=C1NCCc2c1c1cccc(OCc3ccccc3)c1n2COCc1ccccc1`, for which the melting point was 188 to 190 °C.
Take `CCCc1ccc(C(=O)O)cc1[N+](=O)[O-]`: the melting point was 106 to 109 °C.
Turning to `CCCc1nc(Cl)cc(NC)n1`, the melting point was 30 to 40 °C.
The compound `O=C(Oc1ccc([N+](=O)[O-])cc1)c1cccc2c(Cl)c3ccccc3nc12` gave a melting point of 194 to 196 °C.
With `O=c1c2ccc(-c3nnn[nH]3)cc2oc2ccc(OCCCO)cc12`, the melting point was determined as 270 °C.
The result for `CCCCCCCCCCOc1ccc(-c2ccc(CCCCC(C)O)cc2)cc1` (stereo not given) reads 92 to 93 °C; that for `O=[N+]([O-])c1ccc2c(c1)COC(c1ccccc1F)O2` (stereo not given), 137 to 138 °C; that for `COc1cc(Cl)ccc1C(=O)NC1CN(c2ccc(F)cc2)CCn2c1nc(-c1ccncn1)cc2=O` (racemic), 207 to 209 °C.
Under `Cc1ccc(S(=O)(=O)N(Cc2ccc(C#N)cc2F)C2CCCC2)cc1` stands 178 to 179 °C; under `CS(=O)(=O)c1ccc(-c2nc(C(F)(F)F)nc(Cl)c2-c2ccc(Cl)cc2)cc1`, 188 to 190 °C.
Regarding `CSc1cc2c(cc1SC)C(=O)c1cc3ccccc3cc1C2=O`, the melting point is > 260 °C.
`O=C1Nc2cc(Cl)c(Cl)cc2C1(Br)c1ccccc1Cl` (stereo not given) had a melting point of 215 to 218 °C.
`O=C1NCC2(CCN(C(=O)OCc3ccccc3)CC2)O1` yielded a melting point of 126 to 128 °C.
The result for `COc1ccc(-c2nc(Sc3ccc(C(C)(C)C)cc3)n(C3CCCCO3)c2-c2ccc(OC)cc2)cc1` (stereo not given) reads 162 to 164 °C; that for `CN(C)CCNC(=O)N1CCN(c2ccc(Br)cc2)CC1`, 133 to 135 °C; that for `CCOCCOC(=O)C1=C(C)NC(C(OCC)OCC)=C(C(=O)OCC)C1c1cccc([N+](=O)[O-])c1` (stereo not given), 99 to 100 °C.
The result for `COc1cnc(-c2cccn3nc(Nc4ccc(C5CCN(CC(=O)N(C)C)CC5)cc4)nc23)cn1` reads 185 to 187 °C.
`NOCCc1cn(C(c2ccccc2)(c2ccccc2)c2ccccc2)cn1` yielded a melting point of 93 °C.
The result for `CC12CCC(C(=Cc3ccc([N+](=O)[O-])cc3)C1=O)C2(C)C` (stereo not given) reads 158 °C; that for `CNC(=O)N1CC(=O)Nc2ccc([N+](=O)[O-])cc2C1c1ccccc1` (stereo not given), 176 to 180 °C; that for `OCc1cn(Cc2ccc(OCc3ccccc3)cc2)cc1-c1ccccc1`, 122 to 123 °C.
`CC1COCc2nc3c(N)nc4cc(CCS(C)(=O)=O)ccc4c3n21` (stereo not given) returned a melting point of 205 to 206 °C.
The compound `Cc1c(C(=O)O)oc(=O)c2ccccc12` had a melting point of 248 to 249 °C.
On to `CS(=O)(=O)c1ccc(Cl)cc1C(=O)O`, for which the melting point fell in the range of 138 to 146 °C.
Under `Cc1cc(C)c2cnc(=O)n(CCN(C)C)c2n1` stands 137 to 139 °C; under `O=C(Nc1ccc(OCCO)cc1)c1ccc(N2CCNCC2)cc1`, > 260 °C; under `O=C(O)c1ccc(S(=O)(=O)NCCSC2c3ccccc3COc3ccc(OCc4ccc5ccccc5n4)cc32)cc1` (stereo not given), 113 to 115 °C.
Under `COC(=O)CCCCCCCCCCC(C)=S` stands < 25 °C; under `CN(Cc1ccccn1)C(=S)Nc1ccc(C#N)cc1`, 171 °C.
Regarding `O=C(NC(=S)N1CCN(c2nc3cccccc-3n2)CC1)c1ccccc1`, the melting point is 182 to 185 °C.
Under `OP(O)C(NC(c1ccccc1)c1ccccc1)c1cccnc1` (stereo not given) stands 129 to 132 °C; under `COc1cc(Nc2c(C#N)cnc3cc(-c4ccc(CN5CCN(CCO)CC5)cc4)sc23)c(Cl)cc1Cl`, 189 to 190 °C.
Compound `COC(=O)CC(=O)NC[C@H]1CN(c2ccc3c(c2)CCCc2cnoc2-3)C(=O)O1` had a melting point of 205 to 217 °C.
Under `C=C(c1cc(C(C)(C)C)cc2c1CCC2(C)C)c1sccc1C=O` stands 148 to 150 °C; under `Cc1ccc(S(N)(=O)=O)cc1C(C)O` (stereo not given), 155 to 158 °C; under `CC(=NNc1ccc(C2=NNC(=O)CO2)cc1)c1ccncc1`, 195 °C.
As to `CCOc1cc(COc2nn(-c3ccccc3)cc2/C=C/P(=O)(OCC)OCC)ccc1OCc1nc(-c2ccco2)oc1C`, the melting point lay in the range of 117 to 118 °C.
For the compound `O=c1c2cc(F)c(N3CCCC3)cc2n(Cc2ccccc2)c(=O)n1O`, the melting point is 234 to 236 °C.
Take `FC(F)(F)Oc1ccc(-c2ccc3c(ccn3Cc3ccccc3)c2)cc1`: the melting point lay in the range of 62 to 63 °C.
Compound `CC(c1ccc(Cl)cc1)N1CCNC1=NC(N)=S` (stereo not given) showed a melting point of 107 °C.
Compound `CC(CC(=O)O)Oc1ccc(Oc2ccccc2)c(NS(C)(=O)=O)c1` (stereo not given) yielded a melting point of 121 to 124 °C.
`COc1nnc2n1C=Cc1ccccc1C2c1ccccc1` (stereo not given) came in with a melting point of 183 to 184 °C.
Turning to `CC1(C)Cc2c(sc(N)c2C(N)=O)CO1`, the melting point was in the range of 212 to 214 °C.
Turning to `CN(C)S(=O)(=O)Cc1ccccc1C(=O)O`, the melting point is 112 to 119 °C.
For `CCOC(=O)/C=C/c1cc(OC)cc(OC)c1C#N`, the melting point lay in the range of 119 to 122 °C.
Consider `Fc1ccc(-n2nccc2-c2ccnc(NCc3ccccc3)c2)cc1`, for which the melting point is 125 to 127 °C.
For the compound `Cn1c(=O)c2c(C#N)cccc2n2cnc(-c3noc(C4CC4)n3)c12`, the melting point was 115 to 125 °C.
Under `CCOc1cc([N+](=O)[O-])c(C)c(C)c1[N+](=O)[O-]` stands 64 to 66 °C.
As for `Cn1cc2snnc2n1`, the melting point is 125 to 127 °C.
In turn, `COc1ccc(SC2=C(C(=O)O)CCC2=CCCc2ccccc2)cc1OC` registered a melting point of 146 to 148 °C.
In the case of `c1ccc(CN2CCOc3cccc4nc5c(c2c34)CCCC5)cc1`, the melting point lay in the range of 132 to 133 °C.
`Nc1cc(C(=O)O)cc(S(N)(=O)=O)c1Nc1ccc2ccccc2c1` returned a melting point of 245 °C.

The values are drawn from a melting point compilation (Tetko et al.; mined from patent text by program, amines drawn as free bases though some values may be those of a salt).
